Experiments:
[1] = tested on: RKO (RKOp27) human colon adenocarcinoma cells; assay: Alamar Blue cell viability assay, anti-proliferative/cytotoxic activity on proliferating RKO subclones; type: cell-based; conditions: RKOp27, 72 h, RKO p27 uninduced (proliferating) cells, value = class bound given in Table A, read-out: −logIC50 RKO p27 uninduced (proliferating) (converted)
Description: The anti-proliferative/cytotoxic activity of the compounds described herein, can be tested on subclones of RKO (RKOp27) human colon adenocarcinoma cells (Schmidt et al., Oncogene 19, 2423-2429; 2000) using the Alamar Blue cell viability assay (described in O'Brien et al. Eur J Biochem 267, 5421-5426, 2000). The compounds are dissolved as 20 mM solutions in dimethylsulfoxide (DMSO) and subsequently diluted in semi-logarithmic steps. DMSO dilutions are further diluted 1:100 into Dulbecco's modified Eagle's medium (DMEM) containing 10% fetal calf serum to a final concentration twice as much as the final concentration in the test. RKO subclones are seeded into 96 well flat bottom plates at a density of 5000 cells per well in a volume of 50 μl per well. 24 hours after seeding the 50 μl each of the compound dilutions in DMEM medium are added into each well of the 96 Well plate. Each compound dilution is tested as quadruplicates. Wells containing untreated control cells are filled with 50 μl DMEM medium containing 1% DMSO. The cells are then incubated with the substances for 72 hours at 37° C. in a hunified atmosphere containing 5% carbon dioxide. To determine the viability of the cells, 10 μl of an Alamar Blue solution (Biosource) are added and the fluorescence is measured at an extinction of 544 nm and an emission of 590 nm. For the calculation of the cell viability the emission value from untreated cells is set as 100% viability and the emission rates of treated cells are set in relation to the values of untreated cells. Viabilities are expressed as % values.
The corresponding IC50 values of the compounds for anti-proliferative/cytotoxic activity are determined from the concentration-effect curves.
(§1) Representative −log IC50 [mol/l] values for anti-proliferation/cytotoxicity determined in the mentioned assays follow from the following table A, in which the numbers of the compound correspond to the numbers of the examples.

[2] = tested on: subclones of RKO colon adenocarcinoma cells (RKOp27 or RKOp21) arrested by Ponasterone A; assay: Alamar Blue cell viability assay, cell cycle specific mode of action: cells arrested by ectopic p27Kip1 induced by Ponasterone A versus proliferating cells; type: cell-based; conditions: Homo sapiens, RKO p27 induced (arrested) cells, 10 μM Ponasterone A, 72 hours, value = class bound given in Table A, read-out: −logIC50 RKO p27 induced (arrested) (converted)
Description: To determine the cell cycle specific mode of action, subclones of RKO colon adenocarcinoma cells (RKOp27 or RKOp21 as described by Schmidt et al. in Oncogene 19, 2423-2429; 2000) are seeded into 96 well flat bottom plates at a density of 15000 cells per well in a volume of 50 μl per well in DMEM growth medium with 10% FCS containing 10 μM Ponasterone A. 24 hours after seeding the 50 μl each of the compound dilutions in DMEM medium are added into each well of the 96 Well plate. Each compound dilution is tested as quadruplicates. Wells containing untreated control cells are filled with 50 μl DMEM medium containing 1% DMSO. The cells are then incubated with the substances for 72 hours at 37° C. in a humidified athmosphere containing 5% carbon dioxide. To determine the viability of the cells, 10 μl of an Alamar Blue solution (Biosource) are added and the fluorescence was measured at an extinction of 544 nm and an emission of 590 nm. For the calculation of the cell viability the emission value from untreated cells is set as 100% viability and the emission rates of treated cells are set in relation to the values of untreated cells. Viabilities are expressed as % values. Viability is compared of proliferating cells grown in the absence of the inducer Ponasterone A, versus viability of cells arrested by the expression of ectopic p27Kip1 induced by Ponasterone A.
as §1

Compound	IC50 [2]	IC50 [1]
N#Cc1c(NC(=O)/C=C/c2cccnc2)sc2c1CCC(OC(=O)NCc1ccccc1)C2 (stereo not shown) [Example 2, Benzyl-carbamic acid 3-cyano-2-((E)-3-pyridin-3-yl-allanoylamino)-4,5,6,7-tetrahydro-benzo[b]thiophen-6-yl ester]	≥ 10 µM	0.501 to 2 µM
CCNC(=O)OC1CCc2c(sc(NC(=O)/C=C/c3cccnc3)c2C#N)C1 (stereo not shown) [Example 3, Ethyl-carbamic acid 3-cyano-2-((E)-3-pyridin-3-yl-allanoylamino)-4,5,6,7-tetrahydro-benzo[b]thiophen-6-yl ester]	≥ 100 µM	≤ 0.501 µM
CCOC(=O)OC1CCc2c(sc(NC(=O)/C=C/c3cccnc3)c2C#N)C1 (stereo not shown) [Example 4, Carbonic acid 3-cyano-2-((E)-3-pyridin-3-yl-allanoylamino)-4,5,6,7-tetrahydro-benzo[b]thiophen-6-yl ester ethyl ester]	≥ 100 µM	≤ 0.501 µM
CCNC(=O)OC1CCc2c(sc(NC(=O)/C=C/c3ccccc3OCC)c2C#N)C1 (stereo not shown) [Example 5, Ethyl-carbamic acid 3-cyano-2-[(E)-3-(2-ethoxy-phenyl)-allanoylamino]-4,5,6,7-tetrahydro-benzo[b]thiophen-6-yl ester]	≥ 10 µM	≤ 0.501 µM
CCOC(=O)OC1CCc2c(sc(NC(=O)/C=C/c3ccccc3OCC)c2C#N)C1 (stereo not shown) [Example 6, Carbonic acid 3-cyano-2-[(E)-3-(2-ethoxy-phenyl)-allanoylamino]-4,5,6,7-tetrahydro-benzo[b]thiophen-6-yl ester ethyl ester]	≥ 100 µM	0.501 to 2 µM
N#Cc1c(NC(=O)/C=C/c2cccnc2)sc2c1CCC(COC(=O)NCc1ccccc1)C2 (stereo not shown) [Example 7, Benzyl-carbamic acid 3-cyano-2-((E)-3-pyridin-3-yl-allanoylamino)-4,5,6,7-tetrahydro-benzo[b]thiophen-6-ylmethyl ester]	≥ 100 µM	≤ 0.501 µM
CCOC(=O)OCC1CCc2c(sc(NC(=O)/C=C/c3cccnc3)c2C#N)C1 (stereo not shown) [Example 8, Carbonic acid 3-cyano-2-((E)-3-pyridin-3-yl-allanoylamino)-4,5,6,7-tetrahydro-benzo[b]thiophen-6-ylmethyl ester ethyl ester]	≥ 100 µM	0.501 to 2 µM
CCNC(=O)OCC1CCc2c(sc(NC(=O)/C=C/c3cccnc3)c2C#N)C1 (stereo not shown) [Example 9, Ethyl-carbamic acid 3-cyano-2-((E)-3-pyridin-3-yl-allanoylamino)-4,5,6,7-tetrahydro-benzo[b]thiophen-6-ylmethyl ester]	≥ 100 µM	0.501 to 2 µM
CCNC(=O)OC[C@H]1CCc2c(sc(NC(=O)/C=C/c3cccnc3)c2C#N)C1 [Example 9a, (S)-Ethyl-carbamic acid 3-cyano-2-((E)-3-pyridin-3-yl-allanoylamino)-4,5,6,7-tetrahydro-benzo[b]thiophen-6-ylmethyl ester]	≥ 100 µM	≤ 0.501 µM
CCNC(=O)OC[C@@H]1CCc2c(sc(NC(=O)/C=C/c3cccnc3)c2C#N)C1 [Example 9b, (R)-Ethyl-carbamic acid 3-cyano-2-((E)-3-pyridin-3-yl-allanoylamino)-4,5,6,7-tetrahydro-benzo[b]thiophen-6-ylmethyl ester]	≥ 100 µM	≤ 0.501 µM
CCNC(=O)OCC1CCc2c(sc(NC(=O)/C=C/c3ccccc3OCC)c2C#N)C1 (stereo not shown) [Example 10, Ethyl-carbamic acid 3-cyano-2-[(E)-3-(2-ethoxy-phenyl)-allanoylamino]-4,5,6,7-tetrahydro-benzo[b]thiophen-6-ylmethyl ester]	≥ 100 µM	≤ 0.501 µM
CCOc1ccccc1/C=C/C(=O)Nc1sc2c(c1C#N)CCC(OC(=O)OCCOC)C2 (stereo not shown) [Example 11, Carbonic acid 3-cyano-2-[(E)-3-(2-ethoxy-phenyl)-allanoylamino]-4,5,6,7-tetrahydro-benzo[b]thiophen-6-yl ester 2-methoxy-ethyl ester]	≥ 100 µM	≤ 0.501 µM
CCOc1ccccc1/C=C/C(=O)Nc1sc2c(c1C#N)CCC(OC(=O)NCCOC)C2 (stereo not shown) [Example 12, (2-Methoxy-ethyl)-carbamic acid 3-cyano-2-[(E)-3-(2-ethoxy-phenyl)-allanoylamino]-4,5,6,7-tetrahydro-benzo[b]thiophen-6-yl ester]	≥ 50.1 µM	≤ 0.501 µM

The next lines start with results.

IC50 [2]	Compound	IC50 [1]
≥ 100 µM	CCOc1ccccc1/C=C/C(=O)Nc1sc2c(c1C#N)CCC(OC(=O)OCCN1CCOCC1)C2 (stereo not shown) [Example 13, Carbonic acid 3-cyano-2-[(E)-3-(2-ethoxy-phenyl)-allanoylamino]-4,5,6,7-tetrahydro-benzo[b]thiophen-6-yl ester 2-morpholin-4-yl-ethyl ester]	0.501 to 2 µM
≥ 50.1 µM	CCOc1ccccc1/C=C/C(=O)Nc1sc2c(c1C#N)CCC(OC(=O)NCc1cccnc1)C2 (stereo not shown) [Example 14, Pyridin-3-ylmethyl-carbamic acid 3-cyano-2-[(E)-3-(2-ethoxy-phenyl)-allanoylamino]-4,5,6,7-tetrahydro-benzo[b]thiophen-6-yl ester]	0.501 to 2 µM
≥ 100 µM	CCOc1ccccc1/C=C/C(=O)Nc1sc2c(c1C#N)CCC(COC(=O)NCc1ccccn1)C2 (stereo not shown) [Example 15, Pyridin-2-ylmethyl-carbamic acid 3-cyano-2-[(E)-3-(2-ethoxy-phenyl)-allanoylamino]-4,5,6,7-tetrahydro-benzo[b]thiophen-6-ylmethyl ester]	0.501 to 2 µM
≥ 100 µM	CNC(=O)OCC1CCc2c(sc(NC(=O)/C=C/c3cccnc3)c2C#N)C1 (stereo not shown) [Example 16, Methyl-carbamic acid 3-cyano-2-((E)-3-pyridin-3-yl-allanoylamino)-4,5,6,7-tetrahydro-benzo[b]thiophen-6-ylmethyl ester]	≤ 0.501 µM
≥ 100 µM	CNC(=O)OC[C@H]1CCc2c(sc(NC(=O)/C=C/c3cccnc3)c2C#N)C1 [Example 16a, (S)-Methyl-carbamic acid 3-cyano-2-((E)-3-pyridin-3-yl-allanoylamino)-4,5,6,7-tetrahydro-benzo[b]thiophen-6-ylmethyl ester]	≤ 0.501 µM
≥ 100 µM	CNC(=O)OC[C@@H]1CCc2c(sc(NC(=O)/C=C/c3cccnc3)c2C#N)C1 [Example 16b, Methyl-carbarnic acid (R)-3-cyano-2-((E)-3-pyridin-3-yl-allanoylamino)-4,5,6,7-tetrahydro-benzo[b]thiophen-6-ylmethyl ester]	0.501 to 2 µM
≥ 100 µM	COCCNC(=O)OC1CCc2c(sc(NC(=O)/C=C/c3cccnc3)c2C#N)C1 (stereo not shown) [Example 18, (2-Methoxy-ethyl)-carbamic acid 3-cyano-2-((E)-3-pyridin-3-yl-allanoylamino)-4,5,6,7-tetrahydro-benzo[b]thiophen-6-yl ester]	0.501 to 2 µM
≥ 100 µM	N#Cc1c(NC(=O)/C=C/c2cccnc2)sc2c1CCC(COC(=O)NCCc1cccnc1)C2 (stereo not shown) [Example 19, (2-Pyridin-3-yl-ethyl)-carbamic acid 3-cyano-2-((E)-3-pyridin-3-yl-allanoylamino)-4,5,6,7-tetrahydro-benzo[b]thiophen-6-ylmethyl ester]	0.501 to 2 µM
≥ 100 µM	CNC(=O)OC1CCc2c(sc(NC(=O)/C=C/c3cccnc3)c2C#N)C1 (stereo not shown) [Example 20, Methyl-carbamic acid 3-cyano-2-((E)-3-pyridin-3-yl-allanoylamino)-4,5,6,7-tetrahydro-benzo[b]thiophen-6-yl ester]	≤ 0.501 µM
≥ 100 µM	N#Cc1c(NC(=O)/C=C/c2cccnc2)sc2c1CCC(OC(=O)NC1CC1)C2 (stereo not shown) [Example 21, Cyclopropyl-carbamic acid 3-cyano-2-((E)-3-pyridin-3-yl-allanoylamino)-4,5,6,7-tetrahydro-benzo[b]thiophen-6-yl ester]	≤ 0.501 µM
